Reference: US11932621B1, “2-[9-(2-hydroxypyridin-3-yl)-1,8-dioxo-1,2,3,4,5-6,7,8,9,10-decahydroacridin-10-yl]-acetate as an antimicrobial compound” (KING FAISAL UNIVERSITY, priority 2023, dated 2024)

Experiments:
Assay type in all cases: cell-based
Details in all cases: after 10, 20, 40 and 60 minutes at all dilutions 1:100, 1:200, 1:400, 1:800
[1] = system: Staphylococcus aureus; test: Antimicrobial screening by agar dilution, Staphylococcus aureus
Experimental: (§1) The antibacterial properties of the synthesized compound 2-[9-(2-hydroxypyridin-3-yl)-1,8-dioxo-1,2,3,4,5,-6,7,8,9,10-decahydroacridin-10-yl]-acetate were studied by the method of agar dilution. Test solutions of each compound was prepared in concentration of 1% using dimethylformamide as a solvent then they are diluted in physiological solution to obtain the final experimental dilutions 1:100, 1:200, 1:400, 1:800. The effect of these substances are compared with furacillin in a controllable study. The testing microbes used were gram positive bacteria Staphylococcus aureus, gram negative bacteria Pseudomonas aeruginosa and Escherichia coli and Candida albicans fungus. The experiments used for this survey were meat-pentonlu agar (EPA) for cultivation of bacteria and Saburo environment for the fungus. Each experiment used 1 mL of test solution on each plate […]. Two drops of emulsified with microbes feel were added. All experimental samples were taken from the agar after 10, 20, 40, 60 minutes in the environment on the basis of Patrk planted. The bacteria were cultivated at a temperature of 37° C. for 1 day and the mushroom was kept in a thermostat for […] at a temperature of 28° C. Then results were checked.

[2] = system: Escherichia coli; test: Antimicrobial screening by agar dilution, Escherichia coli
Experimental: as §1

[3] = system: Pseudomonas aeruginosa; test: Antimicrobial screening by agar dilution, Pseudomonas aeruginosa
Experimental: as §1

[4] = system: Candida albicans; test: Antimicrobial screening by agar dilution, Candida albicans
Experimental: as §1

Measured: inhibition activity

CCOC(=O)CN1C2=C(C(=O)CCC2)C(c2cccnc2O)C2=C1CCCC2=O [2-[9-(2-hydroxypyridin-3-yl)-1,8-dioxo-1,2,3,4,5,-6,7,8,9,10-decahydroacridin-10-yl]-acetate]
highest inhibition activity: all assays above
